Data published in patent US12280090B2, “Antimicrobial peptides” (priority 2018, dated 2025).
Converted amounts (≈) assume the structure as drawn. Where two headings read alike, the source gives them in different places. Ends that are not written are not given here. Peptide text beside a SMILES is read from it.

How the values were obtained:
Format in all cases: cell-based
[1] = tested on: Escherichia coli—Extended spectrum beta-lactamase
Description: (§1) Independent experiments were conducted with four strains of E. coli, including ATCC E. coli (Escherichia coli—ATCC 25922 “wild type”); ESBL E. coli (Escherichia coli—Extended spectrum beta-lactamase); CPO E. coli (KPC) (Escherichia coli—Carbapenemase-producing organism; Klebsiella pneumoniae carbapenemase); and CPO E. coli (NDM) (Escherichia coli—Carbapenemase-producing organism; New-Dehli Metallobetalactamase).
(§2) The ATCC (American Type Culture Collection) strains received from Cedarlane. Multi drug resistant (MDR) strains, as clinical isolates, were received from the laboratory of Dr. Linda Hoang.
(§3) Putative antimicrobial peptides were synthesized by GeneScript. A-list antimicrobial peptides re-synthesized by GeneScript. P2_CCH, P5_CCH, and P5_CCH_A19K were each synthesized under two conditions: standard synthesis using TFA, and the other with TFA-removal using acetate as a counter-ion. A MIC method, adapted for use with cationic antimicrobial peptides, was used to evaluate MIC antimicrobial activity (Hancock 1999).
(§4) The following data are presented to show the activity (MIC/MBC in μg/mL) of certain antimicrobial peptides described herein relative to a modified/synthetic version having a specified substitution. While data presented in tables above may be presented again, or may be represented in data provided in the tables below, such duplication is believed to assist the reader in readily noting comparisons. Different Run Numbers noted in the following tables denotes experiments conducted on different days, with each run reflecting multiple n values.

[2] = tested on: Escherichia coli—Carbapenemase-producing organism; Klebsiella pneumoniae carbapenemase
Description: as §1, §2, §3, §4

[3] = tested on: Escherichia coli—Carbapenemase-producing organism; New-Dehli Metallobetalactamase
Description: as §1, §2, §3, §4

[4] = tested on: Escherichia coli—ATCC 25922 “wild type”
Description: as §1, §2, §3, §4

[5] = tested on: Salmonella Heidelberg (MDR)
Text: as §2, §3, §4

[6] = tested on: Mycobacterium smegmatis (MC^2155); conditions: Mycobacterium (MC^2155)
Description: (§5) Microtiter broth dilution assays. HP2, HP3, and HP5 peptides are comprised of novel sequences that have not yet been described in the AMP literature. A common method for establishing antimicrobial activity of peptides is to perform microtiter broth assays. Microtiter broth dilution methods were implemented for determination of the minimum inhibitory concentration (MIC) and minimum bactericidal concentration (MBC). HP3 and HP5 were tested in addition to Ranatuerin-1/HP4 peptide as a positive control. HP2 could not be tested because multiple peptide synthesis attempts failed. The human cathelicidin, LL-37^30 was used as an additional positive control, and an unrelated similarly sized cationic peptide from the T. pallidum protein Tp0751 was used as a negative control. The potential AMPs were tested against bacteria representative of all three types of known cell envelope (Gram-positive, negative, and the complex and unique mycobacterial cell wall/envelope), given that a major mechanism used by AMPs is cell wall/membrane targeting.
(§6) Microtiter broth dilution assays. To test for antimicrobial activity, HP3, HP4/Ranatuerin-1, and HP5, peptides were synthesized by GenScript (Piscataway, New Jersey, USA). HP2 was not tested because the service provider was unable to synthesize this peptide despite multiple attempts. An unrelated, similarly-sized peptide from the Treponema pallidum protein Tp0751^55 was used as a negative control and the human cathelicidin, LL-37^30, was included as a positive control. Peptides were dissolved in filter-sterilized ultrapure water and tested for sterility by plating on non-selective agar plates followed by a 48 h incubation at 37° C. Two-fold serial dilutions of each peptide were prepared to obtain a series corresponding to ten times the required testing concentrations (2560, 1280, 640, 320, 160, 80, 40, 20, 10, and 5 μg/mL)^29.
(§7) Microtiter broth dilution methods were implemented for determination of the minimum inhibitory concentration (MIC) and minimum bactericidal concentration (MBC) of the four putative AMPs and the negative control peptide using procedures adapted from the R.E.W. Hancock Laboratory for cationic AMPs^29 and the CLSI methods for dilution antimicrobial susceptibility tests^56.
(§8) To assess antimicrobial activity across a diverse range of bacterial species, colonies were cultured overnight on Mueller Hinton agar plates (MHA; +5% sheep blood for S. pyogenes)^56 from frozen glycerol stock. Bacteria tested include Gram-negative rods (Escherichia coli: ATCC 9723H; Pseudomonas aeruginosa: ATCC 10148), Gram-positive cocci (Staphylococcus aureus: ATCC 6538P; Streptococcus pyogenes: unknown strain, hospital isolate), and Mycobacterium smegmatis (MC^2155; classified as neither Gram-positive nor Gram-negative). Bacterial suspensions were prepared by placing 3-5 morphologically similar colonies from the grown plate into sterile glass culture tubes containing 2 mL of Mueller Hinton Broth (MHB; +5% lysed horse blood for S. pyogenes) 56. Microbial inoculums from bacterial suspensions were prepared through a spectrophotometric adjustment of turbidity to 0.08-0.1 at 600 nm to achieve a turbidity equivalent to that of a 0.5 McFarland standard (1-2×10^8 CFU/mL)^29. The standardized bacterial inoculums were then diluted in MHB to obtain final cell densities of approximately […].
(§9) Ninety-six-well microtiter plates (Fisher Cat. No. CS003790; Nepean, Ontario, Canada) were prepared with 100 μL of E. coli, P. aeruginosa, S. aureus, S. pyogenes, or M. smegmatis bacterial suspension (5×10^5 CFU/mL) dispensed into each well of columns 1 through 11. Eleven microliters of the 10×AMP dilution series for all four peptides were added to each well from column 1 (2560 μg/mL) to column 10 (5 μg/mL) in all plates. Column 11 functioned as a positive control for bacterial growth in the absence of AMPs. Column 12 in each plate contained 100 μL of MHB as a sterility control (+5% lysed horse blood for S. pyogenes)^56. […]

[7] = tested on: Streptococcus pyogenes: unknown strain, hospital isolate; conditions: unknown strain, hospital isolate
Description: as §5, §6, §7, §8, §9

[8] = tested on: Escherichia coli: ATCC 9723H; conditions: ATCC 9723
Description: as §5, §6, §7, §8, §9

[9] = tested on: Staphylococcus aureus: ATCC 6538P; conditions: ATCC 6538
Description: as §5, §6, §7, §8, §9

[10] = tested on: Pseudomonas aeruginosa: ATCC 10148; conditions: ATCC 10148
Description: as §5, §6, §7, §8, §9

Salmonella Enteritidis = tested on: Salmonella Enteritidis
Text: as §3, §4

[11] = tested on: Staphylococcus aureus—ATCC 29213 “wild type”; conditions: ATCC 29213
Description: Independent experiments were conducted with different strains of Staphylococcus aureus—ATCC 29213 “wild type”; and Staphylococcus aureus—Methicillin resistant Staphylococcus aureus.
as §2, §3, §4

Compound | Minimum Inhibitory Concentration (MIC) [1] | Minimum Inhibitory Concentration (MIC) [2] | MBC [3] | MIC [3] | MIC [4] | Minimum Inhibitory Concentration (MIC) [4] | MIC [5] | MBC [2] | MIC [2] | Minimum Inhibitory Concentration (MIC) [3] | MIC [6] | MBC [7] | MIC [7] | MBC [9] | MIC [9] | MBC [10] | MIC [10] | MBC (Salmonella Enteritidis) | MBC [1] | MIC [1] | other results
CC[C@H](C)[C@H](NC(=O)CNC(=O)[C@@H](NC(=O)[C@@H](NC(=O)[C@H](CCCCN)NC(=O)CNC(=O)[C@@H](NC(=O)[C@H](CCCCN)NC(=O)[C@H](CCCCN)NC(=O)[C@@H](NC(=O)[C@@H](NC(=O)[C@H](CC(=O)O)NC(=O)[C@H](CC(C)C)NC(=O)[C@H](CC(C)C)NC(=O)CN)[C@@H](C)CC)[C@@H](C)CC)[C@@H](C)O)[C@@H](C)O)[C@@H](C)O)C(=O)N[C@@H](CC(C)C)C(=O)N[C@@H](CCSC)C(=O)N[C@@H](CC(=O)O)C(=O)N[C@H](C(=O)N[C@@H](CC(C)C)C(=O)N[C@@H](CCCCN)C(=O)N[C@@H](CS)C(=O)N[C@@H](CS)C(=O)N[C@@H](CCSC)C(=O)N[C@H](C(=O)NCC(=O)N[C@@H](CCCNC(=N)N)C(=O)N[C@@H](CS)C(=O)N1CCC[C@H]1C(=O)N1CCC[C@H]1C(=O)N[C@@H](CO)C(=O)N[C@@H](CO)C(=O)O)[C@@H](C)O)[C@@H](C)O [P3_CCH_D8K_Q23C] (H-GLLDIIKKTGKTTGILMDTLKCCMTGRCPPSS-OH; N-terminus and C-terminus assumed) | 64 µg/mL | 64 to 128 µg/mL | 128 µg/mL (≈ 37.8 µM) | 128 µg/mL (≈ 37.8 µM) | 64 µg/mL (≈ 18.9 µM) | 64 µg/mL | 256 µg/mL (≈ 75.7 µM) | – | – | – | – | – | – | – | – | – | – | – | – | – | Minimum Inhibitory Concentration (MIC) ([3]; CPO E. coli NDM, Gram negative): 128+ ug/mL; MBC [4]: 64 µg/mL (≈ 18.9 µM)
CC[C@H](C)[C@H](NC(=O)[C@H](CCCCN)NC(=O)[C@@H](NC(=O)[C@H](C)NC(=O)[C@H](Cc1ccccc1)NC(=O)[C@H](CC(=O)O)NC(=O)[C@H](CCCCN)NC(=O)CNC(=O)[C@@H](NC(=O)[C@@H](NC(=O)[C@H](CCCCN)NC(=O)[C@@H](NC(=O)[C@@H](NC(=O)[C@H](CC(=O)O)NC(=O)[C@H](CC(C)C)NC(=O)[C@H](CC(C)C)NC(=O)CN)[C@@H](C)CC)[C@@H](C)CC)[C@@H](C)O)[C@@H](C)O)C(C)C)C(=O)N[C@@H](CC(C)C)C(=O)N[C@@H](CC(=O)O)C(=O)N[C@@H](CC(N)=O)C(=O)N[C@@H](CC(C)C)C(=O)N[C@@H](CCCCN)C(=O)N[C@@H](CS)C(=O)N[C@@H](CCCCN)C(=O)N[C@@H](CC(C)C)C(=O)N[C@@H](C)C(=O)NCC(=O)NCC(=O)N[C@@H](CS)C(=O)N1CCC[C@H]1C(=O)N1CCC[C@H]1C(=O)O [Peptide P4_CCH] (H-GLLDIIKTTGKDFAVKILDNLKCKLAGGCPP-OH; N-terminus and C-terminus assumed) | 64 µg/mL | 32 µg/mL | – | – | – | 32 to 64 µg/mL | 256 µg/mL (≈ 78.9 µM) | 64 µg/mL (≈ 19.7 µM) | 32 µg/mL (≈ 9.87 µM) | 64 to 128 µg/mL | 8 µg/mL (≈ 2.47 µM) | 256 µg/mL (≈ 78.9 µM) | 256 µg/mL (≈ 78.9 µM) | >256 µg/mL | >256 µg/mL | >256 µg/mL | >256 µg/mL | – | – | – | MBC [6]: >256 µg/mL; MBC [8]: 128 µg/mL (≈ 39.5 µM); MIC [8]: 128 µg/mL (≈ 39.5 µM)
FFPRVLPLANKFLPTIYCALPKSVGN [Peptide P2_CCH] | 16 µg/mL | 16 to 32 µg/mL | – | – | – | 16 µg/mL | 128 µg/mL | – | – | 16 µg/mL | 16 µg/mL | >256 µg/mL | >256 µg/mL | >256 µg/mL | >256 µg/mL | >256 µg/mL | >256 µg/mL | 64 µg/mL | – | – | MIC (Salmonella Enteritidis): 64 µg/mL; Minimum Inhibitory Concentration (MIC) (Salmonella Enteritidis): 64 µg/mL; MBC [5]: 128 µg/mL; Minimum Inhibitory Concentration (MIC) [5]: 128 µg/mL
CC[C@H](C)[C@H](NC(=O)[C@H](CCCCN)NC(=O)[C@@H](NC(=O)[C@H](C)NC(=O)[C@H](Cc1ccccc1)NC(=O)[C@H](CC(=O)O)NC(=O)[C@H](CCCCN)NC(=O)CNC(=O)[C@@H](NC(=O)[C@@H](NC(=O)[C@H](CCCCN)NC(=O)[C@@H](NC(=O)[C@@H](NC(=O)[C@H](CC(=O)O)NC(=O)[C@H](CC(C)C)NC(=O)[C@H](CC(C)C)NC(=O)CN)[C@@H](C)CC)[C@@H](C)CC)[C@@H](C)O)[C@@H](C)O)C(C)C)C(=O)N[C@@H](CC(C)C)C(=O)N[C@@H](CC(=O)O)C(=O)N[C@@H](CC(N)=O)C(=O)N[C@@H](CC(C)C)C(=O)N[C@@H](CCCCN)C(=O)N[C@@H](CS)C(=O)N[C@@H](CCCCN)C(=O)N[C@@H](CC(C)C)C(=O)N[C@@H](C)C(=O)NCC(=O)NCC(=O)N[C@@H](CS)C(=O)N1CCC[C@H]1C(=O)N[C@@H](CCCCN)C(=O)O [Peptide P4_CCH_P31K] (H-GLLDIIKTTGKDFAVKILDNLKCKLAGGCPK-OH; N-terminus and C-terminus assumed) | 32 µg/mL | 16 to 32 µg/mL | – | – | – | 16 to 32 µg/mL | 128 µg/mL (≈ 39.1 µM) | – | – | 32 to 64 µg/mL | – | – | – | – | – | – | – | 256 µg/mL (≈ 78.2 µM) | 32 µg/mL (≈ 9.77 µM) | 32 µg/mL (≈ 9.77 µM) | MIC (Salmonella Enteritidis): 256 µg/mL (≈ 78.2 µM); Minimum Inhibitory Concentration (MIC) ([5]; S. enterica spp. Heidelberg, Gram negative): 128+ ug/mL
ATAWMIPPRGMQPIIPIRIRPLCGKQ [P7_CCH_P9R_R5M] | – | – | – | 256 µg/mL | 256 µg/mL | – | – | 256 µg/mL | 256 µg/mL | – | – | – | – | – | – | – | – | – | 128 µg/mL | 128 µg/mL | MIC [11]: 128 µg/mL
CC[C@H](C)[C@H](NC(=O)[C@H](C)NC(=O)[C@@H]1CCCN1C(=O)[C@@H](N)Cc1ccccc1)C(=O)N[C@H](C(=O)N[C@@H](CS)C(=O)N[C@@H](CCCCN)C(=O)N[C@H](C(=O)N[C@@H](CO)C(=O)N[C@@H](CCCCN)C(=O)N[C@@H](CCCCN)C(=O)N[C@@H](CS)C(=O)O)C(C)C)[C@@H](C)CC [Peptide P8_CCH_N11K, FPAIICKVSKKC] (H-FPAIICKVSKKC-OH; N-terminus and C-terminus assumed) | – | – | 128 µg/mL (≈ 95.8 µM) | 128 µg/mL (≈ 95.8 µM) | – | – | – | – | – | – | – | – | – | – | – | – | – | – | 128 µg/mL (≈ 95.8 µM) | 128 µg/mL (≈ 95.8 µM) | –
